#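 Test compounds were applied to cells in 96-well plates for 48 hours at 5 doses. The concentration for 50% growth inhibition is given as GI50. TGI is the concentration that stops growth completely.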
# Tests used:
# Assay in all cases: inhibition of tumour cell growth, NCI panel, 48 h
# SF-539 CNS = test system: SF-539 CNS
# LOX IMVI melanoma = test system: LOX IMVI melanoma
# NCI/ADR-RES ovarian = test system: NCI/ADR-RES ovarian
# BT-549 breast = test system: BT-549 breast
# MDA-MB-231 breast = test system: MDA-MB-231 breast
# NCI-H23 lung = test system: NCI-H23 lung
# SR leukemia = test system: SR leukemia
# COLO 205 colon = test system: COLO 205 colon
# HT29 colon = test system: HT29 colon
# SK-OV-3 ovarian = test system: SK-OV-3 ovarian
# HOP-62 NSCLC = test system: HOP-62 NSCLC
# SNB-75 CNS = test system: SNB-75 CNS
# SF-295 CNS = test system: SF-295 CNS
# K-562 leukemia = test system: K-562 leukemia
# CAKI-1 renal = test system: CAKI-1 renal
# MCF7 breast = test system: MCF7 breast
# CCRF-CEM leukemia = test system: CCRF-CEM leukemia
# MDA-MB-435 = test system: MDA-MB-435
# OVCAR-8 ovarian = test system: OVCAR-8 ovarian
# UACC-62 melanoma = test system: UACC-62 melanoma
# HS 578T breast = test system: HS 578T breast
# EKVX NSCLC = test system: EKVX NSCLC
# DU-145 prostate = test system: DU-145 prostate
# A498 renal = test system: A498 renal
# UACC-257 melanoma = test system: UACC-257 melanoma
# NCI-H460 lung = test system: NCI-H460 lung
# IGROV1 ovarian = test system: IGROV1 ovarian
# HCT-15 colon = test system: HCT-15 colon
# A549 NSCLC = test system: A549 NSCLC
# NCI-H522 lung = test system: NCI-H522 lung
# UO-31 renal = test system: UO-31 renal
# HCT-116 colon = test system: HCT-116 colon
# NCI-H226 lung = test system: NCI-H226 lung
# SN12C renal = test system: SN12C renal
# KM12 colon = test system: KM12 colon
# SW-620 colon = test system: SW-620 colon
# OVCAR-4 ovarian = test system: OVCAR-4 ovarian
# SF-268 CNS = test system: SF-268 CNS
# U251 CNS = test system: U251 CNS
# SK-MEL-28 melanoma = test system: SK-MEL-28 melanoma
# HOP-92 NSCLC = test system: HOP-92 NSCLC
# HCC-2998 colon = test system: HCC-2998 colon
# OVCAR-5 ovarian = test system: OVCAR-5 ovarian
# MOLT-4 leukemia = test system: MOLT-4 leukemia
# SNB-19 CNS = test system: SNB-19 CNS
# MALME-3M melanoma = test system: MALME-3M melanoma
# PC-3 prostate = test system: PC-3 prostate
# M14 melanoma = test system: M14 melanoma
# SK-MEL-5 melanoma = test system: SK-MEL-5 melanoma
# OVCAR-3 ovarian = test system: OVCAR-3 ovarian
# TK-10 renal = test system: TK-10 renal
# HL-60(TB) leukemia = test system: HL-60(TB) leukemia
# SK-MEL-2 melanoma = test system: SK-MEL-2 melanoma
# T-47D breast = test system: T-47D breast
# ACHN renal = test system: ACHN renal
# RPMI-8226 leukemia = test system: RPMI-8226 leukemia
# 786-0 renal = test system: 786-0 renal
# RXF 393 renal = test system: RXF 393 renal
structure (smiles),measurement,setting,value
CC1C=CC(OC(=O)C(C)(O)CCC(O)(C(=O)OC2CC(O)C(C(C)C)CC2(C)O)C(C)C)(C(C)C)CC1 (stereo unspecified),GI50,SF-539 CNS,0.685 µM
same,TGI,SF-539 CNS,1.35 µM
same,GI50,LOX IMVI melanoma,0.0734 µM
same,TGI,LOX IMVI melanoma,0.142 µM
same,GI50,NCI/ADR-RES ovarian,0.725 µM
same,TGI,NCI/ADR-RES ovarian,2.22 µM
same,GI50,BT-549 breast,0.561 µM
same,TGI,BT-549 breast,1.22 µM
same,GI50,MDA-MB-231 breast,0.656 µM
same,TGI,MDA-MB-231 breast,1.36 µM
same,GI50,NCI-H23 lung,0.591 µM
same,TGI,NCI-H23 lung,1.33 µM
same,GI50,SR leukemia,0.263 µM
same,TGI,SR leukemia,46.3 µM
same,GI50,COLO 205 colon,0.747 µM
same,TGI,COLO 205 colon,1.61 µM
same,GI50,HT29 colon,0.599 µM
same,TGI,HT29 colon,1.56 µM
same,GI50,SK-OV-3 ovarian,0.799 µM
same,TGI,SK-OV-3 ovarian,4.1 µM
same,GI50,HOP-62 NSCLC,0.641 µM
same,TGI,HOP-62 NSCLC,1.66 µM
same,GI50,SNB-75 CNS,0.542 µM
same,TGI,SNB-75 CNS,1.79 µM
same,GI50,SF-295 CNS,0.657 µM
same,TGI,SF-295 CNS,1.41 µM
same,GI50,K-562 leukemia,0.0916 µM
same,TGI,K-562 leukemia,0.218 µM
same,GI50,CAKI-1 renal,0.594 µM
same,TGI,CAKI-1 renal,1.2 µM
same,GI50,MCF7 breast,0.182 µM
same,TGI,MCF7 breast,0.904 µM
same,GI50,CCRF-CEM leukemia,0.244 µM
same,TGI,CCRF-CEM leukemia,0.901 µM
same,GI50,MDA-MB-435,0.521 µM
same,TGI,MDA-MB-435,1.13 µM
same,GI50,OVCAR-8 ovarian,0.835 µM
same,TGI,OVCAR-8 ovarian,2.69 µM
same,GI50,UACC-62 melanoma,0.511 µM
same,TGI,UACC-62 melanoma,2.79 µM
same,GI50,HS 578T breast,0.792 µM
same,TGI,HS 578T breast,4.84 µM
same,GI50,EKVX NSCLC,0.618 µM
same,TGI,EKVX NSCLC,1.41 µM
same,GI50,DU-145 prostate,0.272 µM
same,TGI,DU-145 prostate,0.608 µM
same,GI50,A498 renal,0.844 µM
same,TGI,A498 renal,2.03 µM
same,GI50,UACC-257 melanoma,0.911 µM
same,TGI,UACC-257 melanoma,2.56 µM
same,GI50,NCI-H460 lung,0.799 µM
same,TGI,NCI-H460 lung,1.59 µM
same,GI50,IGROV1 ovarian,0.232 µM
same,TGI,IGROV1 ovarian,0.64 µM
same,GI50,HCT-15 colon,0.235 µM
same,TGI,HCT-15 colon,0.869 µM
same,GI50,A549 NSCLC,0.567 µM
same,TGI,A549 NSCLC,1.39 µM
same,GI50,NCI-H522 lung,0.576 µM
same,TGI,NCI-H522 lung,1.36 µM
same,GI50,UO-31 renal,0.329 µM
same,TGI,UO-31 renal,1.02 µM
same,GI50,HCT-116 colon,0.16 µM
same,TGI,HCT-116 colon,0.449 µM
same,GI50,NCI-H226 lung,0.716 µM
same,TGI,NCI-H226 lung,2.48 µM
same,GI50,SN12C renal,0.149 µM
same,TGI,SN12C renal,0.602 µM
same,GI50,KM12 colon,0.689 µM
same,TGI,KM12 colon,1.45 µM
same,GI50,SW-620 colon,0.604 µM
same,TGI,SW-620 colon,1.41 µM
same,GI50,OVCAR-4 ovarian,0.746 µM
same,TGI,OVCAR-4 ovarian,1.71 µM
same,GI50,SF-268 CNS,0.645 µM
same,TGI,SF-268 CNS,1.64 µM
same,GI50,U251 CNS,0.582 µM
same,TGI,U251 CNS,1.32 µM
same,GI50,SK-MEL-28 melanoma,2.1 µM
same,TGI,SK-MEL-28 melanoma,8.27 µM
same,GI50,HOP-92 NSCLC,0.403 µM
same,TGI,HOP-92 NSCLC,1.86 µM
same,GI50,HCC-2998 colon,2.7 µM
same,TGI,HCC-2998 colon,8.91 µM
same,GI50,OVCAR-5 ovarian,0.665 µM
same,TGI,OVCAR-5 ovarian,1.35 µM
same,GI50,MOLT-4 leukemia,0.193 µM
same,TGI,MOLT-4 leukemia,0.861 µM
same,GI50,SNB-19 CNS,1.19 µM
same,TGI,SNB-19 CNS,16.2 µM
same,GI50,MALME-3M melanoma,0.709 µM
same,TGI,MALME-3M melanoma,1.45 µM
same,GI50,PC-3 prostate,0.676 µM
same,TGI,PC-3 prostate,1.4 µM
same,GI50,M14 melanoma,0.745 µM
same,TGI,M14 melanoma,1.81 µM
same,GI50,SK-MEL-5 melanoma,0.377 µM
same,TGI,SK-MEL-5 melanoma,1.03 µM
same,GI50,OVCAR-3 ovarian,0.188 µM
same,TGI,OVCAR-3 ovarian,0.409 µM
same,GI50,TK-10 renal,0.754 µM
same,TGI,TK-10 renal,1.5 µM
same,GI50,HL-60(TB) leukemia,0.655 µM
same,TGI,HL-60(TB) leukemia,1.68 µM
same,GI50,SK-MEL-2 melanoma,0.769 µM
same,TGI,SK-MEL-2 melanoma,1.64 µM
same,GI50,T-47D breast,0.292 µM
same,TGI,T-47D breast,1.81 µM
same,GI50,ACHN renal,0.322 µM
same,TGI,ACHN renal,0.949 µM
same,GI50,RPMI-8226 leukemia,0.161 µM
same,TGI,RPMI-8226 leukemia,0.711 µM
same,GI50,786-0 renal,0.681 µM
same,TGI,786-0 renal,1.37 µM
same,GI50,RXF 393 renal,0.57 µM
same,TGI,RXF 393 renal,1.35 µM

# Source: PubChem BioAssay (NCI)
